The source of these data is patent US9187460B2, “Estrogen receptor modulators and uses thereof” (SERAGON PHARMACEUTICALS, INC., priority 2011, dated 2015).

Molecules are shown by their SMILES. Bounds are passed on as bounds.

One assay has as its target T1, ER-α (Homo sapiens, UniProt P03372).
T1 construct: endogenous in cells; host or cells: MCF-7
Put plainly: Breast Cancer Cell ER-α in Cell Western Assay (SP1). As to conditions: MCF7, read-out: ER In-Cell Western Assay (SP1); Max Response. The assay is classed as cell-based. Here is the method: Breast Cancer Cell ER-α in Cell Western Assay (SP1)
MCF-7 cells were adjusted to a concentration of 200,000 cells per mL in RPMI containing 10% charcoal-stripped FBS and 20 mM HEPES. 16 microliters of the cell suspension (3200 cells) was added to each well of a poly-D-lysine 384 well plate, and the cells were incubated overnight to allow the cells to adhere. The following day an eleven point, serial semilog dilution of each compound was added to the cells in 16 μL at a final concentration ranging from 0.3-0.000003 μM. At 4 or 24 hr post compound addition, the cells were fixed (10% formalin in PBS) for 20 minutes. Cells were permeablized in PBS 0.1% Triton and blocked with LICOR blocking buffer (50 μl/well, 90′). The wells were then incubated overnight at 4° C. with SP1 rabbit monoclonal Ab (Thermo Scientific) diluted 1:1000 in LICOR blocking buffer/0.1% Tween-20. Wells which were treated with blocking buffer with Tween but no antibody were used as a background control. Wells were washed with 0.1% Tween-20/PBS and then incubated in goat anti-rabbit IRDye™ 800CW (LICOR Inc.; 1:1000) and DRAQ5 DNA dye (1:2000 for 2 mM stock) diluted in LICOR blocking buffer containing 0.1% Tween-20 and 0.01% SDS for 60 minutes. Cells were washed (50 μl/well, 5′ each) in 0.1% Tween-20/PBS. Plates were scanned on a LICOR Odyssey infrared imaging system. Integrated intensities in the 800 nm channel and 700 nm channel were measured to determine levels of ER and DNA respectively. Percent ER levels were determined as follows: (Integrated intensity 800 nm sample/integrated intensity 700 nm sample)/(Integrated intensity 800 nm untreated cells/integrated intensity 700 nm untreated cells)×100=% ER levels.

The subject of another assay is MCF-7 cells. The experiment in a line: Breast Cancer Cell Viability Assay (MCF7 Viability Assay). The assay is classed as cell-based. As to conditions: for IC50: Homo sapiens, MCF7, 120 h, read-out: MCF7 Viability Assay IC50; for MCF7 Viability Assay Max Response: MCF-7 cells, 5 days' compound exposure, CellTiter-Glo.

T1 sequence (P03372 whole entry): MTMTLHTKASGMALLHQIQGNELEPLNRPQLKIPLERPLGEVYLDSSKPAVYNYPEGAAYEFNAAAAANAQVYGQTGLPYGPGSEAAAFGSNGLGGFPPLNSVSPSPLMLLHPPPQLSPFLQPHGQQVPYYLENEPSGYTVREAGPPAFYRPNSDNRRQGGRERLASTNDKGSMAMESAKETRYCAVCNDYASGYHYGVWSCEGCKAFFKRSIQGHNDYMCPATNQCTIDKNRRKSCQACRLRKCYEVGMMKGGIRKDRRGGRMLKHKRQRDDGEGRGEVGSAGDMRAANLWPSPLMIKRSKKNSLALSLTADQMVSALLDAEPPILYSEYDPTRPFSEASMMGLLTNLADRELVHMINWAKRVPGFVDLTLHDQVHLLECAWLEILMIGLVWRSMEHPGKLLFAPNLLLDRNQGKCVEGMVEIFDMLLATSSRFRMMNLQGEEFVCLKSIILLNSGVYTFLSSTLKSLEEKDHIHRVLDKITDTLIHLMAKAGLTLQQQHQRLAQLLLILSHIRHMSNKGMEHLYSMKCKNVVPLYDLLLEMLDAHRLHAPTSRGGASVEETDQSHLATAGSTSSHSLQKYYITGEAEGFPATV

Regarding `CC1=C(c2ccc(C#N)c(O)c2)C(c2ccc(OC[C@H](C)N3CC[C@@H](C)C3)cc2)Oc2ccc(O)cc21` (stereo partly drawn) [Example 10, 2-Hydroxy-4-(6-hydroxy-4-methyl-2-(4-((S)-2-((R)-3-methylpyrrolidin-1-yl)propoxy)phenyl)-2H-chromen-3-yl)benzonitrile], the Emax at ER-α is above 85%. Also, in the assay with MCF-7 cells, the IC50 – broadly, the concentration that gives 50% inhibition – is above 1 nM and the “MCF7 Viability Assay Max Response” value is “++ (++ = a single % value ≧50%)”.
The matching figures for `CC1=C(c2ccc(O)c(C#N)c2)C(c2ccc(OC[C@H](C)N3CC[C@@H](C)C3)cc2)Oc2ccc(O)cc21` (stereo partly drawn) [Example 11, 2-Hydroxy-5-(6-hydroxy-4-methyl-2-(4-((S)-2-((R)-3-methylpyrrolidin-1-yl)propoxy)phenyl)-2H-chromen-3-yl)benzonitrile]: above 85%, above 1 nM and “++ (++ = a single % value ≧50%)”.
The matching figures for `CC1=C(c2ccc(O)cc2C#N)C(c2ccc(OC[C@H](C)N3CC[C@@H](C)C3)cc2)Oc2ccc(O)cc21` (stereo partly drawn) [Example 12, 5-Hydroxy-2-(6-hydroxy-4-methyl-2-(4-((S)-2-((R)-3-methylpyrrolidin-1-yl)propoxy)phenyl)-2H-chromen-3-yl)benzonitrile]: 60 to 85%, below 1 nM and “++ (++ = a single % value ≧50%)”.
Consider `CC1=C(c2ccc(C#N)cc2C)C(c2ccc(OC[C@H](C)N3CC[C@@H](C)C3)cc2)Oc2ccc(O)cc21` (stereo partly drawn) [Example 13, 4-(6-Hydroxy-4-methyl-2-(4-((S)-2-((R)-3-methylpyrrolidin-1-yl)propoxy)phenyl)-2H-chromen-3-yl)-3-methylbenzonitrile], for which, at ER-α, the Emax lay within 60 to 85%. In addition, in the assay on MCF-7 cells, the IC50 is above 1 nM and the “MCF7 Viability Assay Max Response” value is given as “++ (++ = a single % value ≧50%)”.
Consider `CC1=C(c2ccccc2C#N)C(c2ccc(OC[C@H](C)N3CC[C@@H](C)C3)cc2)Oc2ccc(O)cc21` (stereo partly drawn) [Example 14, 2-(6-Hydroxy-4-methyl-2-(4-((S)-2-((R)-3-methylpyrrolidin-1-yl)propoxy)phenyl)-2H-chromen-3-yl)benzonitrile], for which, on ER-α, the Emax is 60 to 85%. Moreover, in the assay on MCF-7 cells, the IC50 is above 1 nM and the “MCF7 Viability Assay Max Response” value is “++ (++ = a single % value ≧50%)”.
Consider `CC1=C(c2cccc(S(C)(=O)=O)c2)C(c2ccc(OC[C@H](C)N3CC[C@@H](C)C3)cc2)Oc2ccc(O)cc21` (stereo partly drawn) [Example 15, 4-Methyl-2-(4-((S)-2-((R)-3-methylpyrrolidin-1-yl)propoxy)phenyl)-3-(3-(methylsulfonyl)phenyl)-2H-chromen-6-ol], for which, on ER-α, the Emax fell in the range of 60 to 85%. Also, in the assay with MCF-7 cells, the IC50 was above 1 nM and the “MCF7 Viability Assay Max Response” value was “++ (++ = a single % value ≧50%)”.
Taken in the same sequence, the figures for `CC1=C(c2cc(O)cc(S(C)(=O)=O)c2)C(c2ccc(OC[C@H](C)N3CC[C@@H](C)C3)cc2)Oc2ccc(O)cc21` (stereo partly drawn) [Example 16, 3-(3-Hydroxy-5-(methylsulfonyl)phenyl)-4-methyl-2-(4-((S)-2-((R)-3-methylpyrrolidin-1-yl)propoxy)phenyl)-2H-chromen-6-ol] were 60 to 85%, above 1 nM and “++ (++ = a single % value ≧50%)”.
As for `CC1=C(c2ccc(O)c(S(C)(=O)=O)c2)C(c2ccc(OC[C@H](C)N3CC[C@@H](C)C3)cc2)Oc2ccc(O)cc21` (stereo partly drawn) [Example 17, 3-(4-Hydroxy-3-(methylsulfonyl)phenyl)-4-methyl-2-(4-((S)-2-((R)-3-methylpyrrolidin-1-yl)propoxy)phenyl)-2H-chromen-6-ol], at ER-α, the Emax is below 60%. In the assay with MCF-7 cells, the concentration for half-maximal inhibition (IC50) is above 1 nM and the “MCF7 Viability Assay Max Response” value was “+ (+ = a single % value <50%)”.
Taken in the same sequence, the figures for `CC1=C(c2ccc(S(C)(=O)=O)cc2C)C(c2ccc(OC[C@H](C)N3CC[C@@H](C)C3)cc2)Oc2ccc(O)cc21` (stereo partly drawn) [Example 18, 4-Methyl-3-(2-methyl-4-(methylsulfonyl)phenyl)-2-(4-((S)-2-((R)-3-methylpyrrolidin-1-yl)propoxy)phenyl)-2H-chromen-6-ol] were 60 to 85%, above 1 nM and “++ (++ = a single % value ≧50%)”.
The matching figures for `CC1=C(c2cccc(O)c2)C(c2ccc(OCCN3CCSCC3)cc2)Oc2ccc(O)cc21` (stereo not drawn) [Example 19, 3-(3-Hydroxyphenyl)-4-methyl-2-(4-(2-thiomorpholinoethoxy)phenyl)-2H-chromen-6-ol]: 60 to 85%, below 1 nM and “+ (+ = a single % value <50%)”.
Taken in the same sequence, the figures for `CC1=C(c2cccc(O)c2)C(c2ccc(OCCN3CCO[C@@H](C)C3)cc2)Oc2ccc(O)cc21` (stereo partly drawn) [Example 20, 3-(3-Hydroxyphenyl)-4-methyl-2-(4-(2-((S)-2-methylmorpholino)ethoxy)phenyl)-2H-chromen-6-ol] were below 60%, below 1 nM and “+ (+ = a single % value <50%)”.
As to `CC1=C(c2cccc(O)c2)C(c2ccc(OCCN3CCOCC3)cc2)Oc2ccc(O)cc21` (stereo not drawn) [Example 21, 3-(3-Hydroxyphenyl)-4-methyl-2-(4-(2-morpholinoethoxy)phenyl)-2H-chromen-6-ol], on ER-α, the Emax lay within 60 to 85%. Further, in the assay with MCF-7 cells, the IC50 is below 1 nM and the “MCF7 Viability Assay Max Response” value was “+ (+ = a single % value <50%)”.
Taken in the same sequence, the figures for `CC1=C(c2cccc(O)c2)C(c2ccc(OCCN3CCO[C@H](C)C3)cc2)Oc2ccc(O)cc21` (stereo partly drawn) [Example 22, 3-(3-Hydroxyphenyl)-4-methyl-2-(4-(2-((R)-2-methylmorpholino)ethoxy)phenyl)-2H-chromen-6-ol] were below 60%, above 1 nM and “+ (+ = a single % value <50%)”.
The matching figures for `CC1=C(c2cccc(O)c2)C(c2ccc(OCCN3CCOC[C@@H]3C)cc2)Oc2ccc(O)cc21` (stereo partly drawn) [Example 23, 3-(3-Hydroxyphenyl)-4-methyl-2-(4-(2-((S)-3-methylmorpholino)ethoxy)phenyl)-2H-chromen-6-ol]: below 60%, above 1 nM and “+ (+ = a single % value <50%)”.
The matching figures for `CC1=C(c2cccc(O)c2)C(c2ccc(OCCN3CCOC[C@H]3C)cc2)Oc2ccc(O)cc21` (stereo partly drawn) [Example 24, 3-(3-Hydroxyphenyl)-4-methyl-2-(4-(2-((R)-3-methylmorpholino)ethoxy)phenyl)-2H-chromen-6-ol]: below 60%, below 1 nM and “+ (+ = a single % value <50%)”.
In the case of `CO[C@@H]1CCN([C@@H](C)COc2ccc(C3Oc4ccc(O)cc4C(C)=C3c3cccc(O)c3)cc2)C1` (stereo partly drawn) [Example 25, 3-(3-Hydroxyphenyl)-2-(4-((S)-2-((R)-3-methoxypyrrolidin-1-yl)propoxy)phenyl)-4-methyl-2H-chromen-6-ol], at ER-α, the Emax lay within 60 to 85%. For the same molecule, in the assay on MCF-7 cells, the IC50 is below 1 nM and the “MCF7 Viability Assay Max Response” value is “++ (++ = a single % value ≧50%)”.
As to `CC1=C(c2cccc(O)c2)C(c2ccc(OC[C@H](C)N3CC[C@@H](O)C3)cc2)Oc2ccc(O)cc21` (stereo partly drawn) [Example 26, (3R)-1-((2S)-1-(4-(6-Hydroxy-3-(3-hydroxyphenyl)-4-methyl-2H-chromen-2-yl)phenoxy)propan-2-yl)pyrrolidin-3-ol], the Emax at ER-α is below 60%. Besides, in the assay on MCF-7 cells, the IC50 is below 1 nM and the “MCF7 Viability Assay Max Response” value is reported as “+ (+ = a single % value <50%)”.
The matching figures for `CC1=C(c2cccc(O)c2)C(c2ccc(OC[C@H](C)N3CCOC[C@H]3C)cc2)Oc2ccc(O)cc21` (stereo partly drawn) [Example 27, 3-(3-Hydroxyphenyl)-4-methyl-2-(4-((S)-2-((R)-3-methylmorpholino)propoxy)phenyl)-2H-chromen-6-ol]: below 60%, below 1 nM and “++ (++ = a single % value ≧50%)”.
Taken in the same sequence, the figures for `CC1=C(c2cccc(O)c2)C(c2ccc(OC[C@H](C)N3CCN(C)C[C@H]3C)cc2)Oc2ccc(O)cc21` (stereo partly drawn) [Example 28, 2-(4-((S)-2-((R)-2,4-Dimethylpiperazin-1-yl)propoxy)phenyl)-3-(3-hydroxyphenyl)-4-methyl-2H-chromen-6-ol] were below 60%, below 1 nM and “+ (+ = a single % value <50%)”.
Taken in the same sequence, the figures for `CC1=C(c2cccc(O)c2)C(c2ccc(OC[C@H](C)N3CCOCC3)cc2)Oc2ccc(O)cc21` (stereo partly drawn) [Example 29, 3-(3-Hydroxyphenyl)-4-methyl-2-(4-((S)-2-morpholinopropoxy)phenyl)-2H-chromen-6-ol] were 60 to 85%, below 1 nM and “+ (+ = a single % value <50%)”.
